Test results published in PubChem BioAssay AID1259407 (Chemical Carcinogenesis Research Information System (CCRIS), 2018).
Calls of active or inactive are those of the source. No rule for the calls is given here.

Tested on: CCRIS mutagenicity, Ames/micronucleus/aberration tests
Test: CCRIS mutagenicity studies
[1] = Test System: AMES SALMONELLA TYPHIMURIUM, Strain/Indicator: TA100, Metabolic Activation: NONE, Method: PREINCUBATION

Q: What does the source list for `CC(COC(=O)c1ccccc1)(COC(=O)c1ccccc1)COC(=O)c1ccccc1`?
A: mutagenic call (Test System: AMES SALMONELLA TYPHIMURIUM, Strain/Indicator: TA97, Metabolic Activation: HAMSTER, LIVER, S-9, AROCLOR 1254 (10 OR 30%), Method: PREINCUBATION): inactive; negative; mutagenic call (Test System: AMES SALMONELLA TYPHIMURIUM, Strain/Indicator: TA97, Metabolic Activation: NONE, Method: PREINCUBATION): inactive; negative; mutagenic call (Test System: AMES SALMONELLA TYPHIMURIUM, Strain/Indicator: TA97, Metabolic Activation: RAT, LIVER, S-9, AROCLOR 1254 (10 OR 30%), Method: PREINCUBATION): inactive; negative; mutagenic call (Test System: AMES SALMONELLA TYPHIMURIUM, Strain/Indicator: TA98, Metabolic Activation: HAMSTER, LIVER, S-9, AROCLOR 1254 (10 OR 30%), Method: PREINCUBATION): inactive; negative; mutagenic call (Test System: AMES SALMONELLA TYPHIMURIUM, Strain/Indicator: TA98, Metabolic Activation: NONE, Method: PREINCUBATION): inactive; negative; mutagenic call (Test System: AMES SALMONELLA TYPHIMURIUM, Strain/Indicator: TA98, Metabolic Activation: RAT, LIVER, S-9, AROCLOR 1254 (10 OR 30%), Method: PREINCUBATION): inactive; negative; mutagenic call (Test System: AMES SALMONELLA TYPHIMURIUM, Strain/Indicator: TA100, Metabolic Activation: HAMSTER, LIVER, S-9, AROCLOR 1254 (10 OR 30%), Method: PREINCUBATION): inactive; negative; mutagenic call [1]: inactive; negative; mutagenic call (Test System: AMES SALMONELLA TYPHIMURIUM, Strain/Indicator: TA100, Metabolic Activation: RAT, LIVER, S-9, AROCLOR 1254 (10 OR 30%), Method: PREINCUBATION): inactive; negative; mutagenic call (Test System: AMES SALMONELLA TYPHIMURIUM, Strain/Indicator: TA1535, Metabolic Activation: HAMSTER, LIVER, S-9, AROCLOR 1254 (10 OR 30%), Method: PREINCUBATION): inactive; negative; mutagenic call (Test System: AMES SALMONELLA TYPHIMURIUM, Strain/Indicator: TA1535, Metabolic Activation: NONE, Method: PREINCUBATION): inactive; negative; mutagenic call (Test System: AMES SALMONELLA TYPHIMURIUM, Strain/Indicator: TA1535, Metabolic Activation: RAT, LIVER, S-9, AROCLOR 1254 (10 OR 30%), Method: PREINCUBATION): inactive; negative; mutagenic call (Test System: AMES SALMONELLA TYPHIMURIUM, Strain/Indicator: TA1537, Metabolic Activation: HAMSTER, LIVER, S-9, AROCLOR 1254 (30%), Method: PREINCUBATION): inactive; negative; mutagenic call (Test System: AMES SALMONELLA TYPHIMURIUM, Strain/Indicator: TA1537, Metabolic Activation: NONE, Method: PREINCUBATION): inactive; negative; mutagenic call (Test System: AMES SALMONELLA TYPHIMURIUM, Strain/Indicator: TA1537, Metabolic Activation: RAT, LIVER, S-9, AROCLOR 1254 (30%), Method: PREINCUBATION): inactive; negative

Q: `O=Cc1ccc([N+](=O)[O-])o1` was tested. Which mutagenic call (Test System: AMES SALMONELLA TYPHIMURIUM, Strain/Indicator: TA98(1,8-DNP6), Metabolic Activation: NONE, Method: STANDARD PLATE) did it give?
A: active; positive

Q: What about the mutagenic call (Test System: AMES SALMONELLA TYPHIMURIUM, Strain/Indicator: TA98(1,8-DNP6), Metabolic Activation: RAT, LIVER, S-9, 3-METHYLCHOLANTHRENE, Method: STANDARD PLATE) of the same compound?
A: active; positive

Q: What about the mutagenic call (Test System: AMES SALMONELLA TYPHIMURIUM, Strain/Indicator: TA98(NR), Metabolic Activation: NONE, Method: STANDARD PLATE) of the same compound?
A: active; positive

Q: What about the mutagenic call (Test System: AMES SALMONELLA TYPHIMURIUM, Strain/Indicator: TA98(NR), Metabolic Activation: RAT, LIVER, S-9, 3-METHYLCHOLANTHRENE, Method: STANDARD PLATE) of the same compound?
A: active; positive

Q: What about the mutagenic call (Test System: AMES SALMONELLA TYPHIMURIUM, Strain/Indicator: TA98, Metabolic Activation: NONE, Method: STANDARD PLATE) of the same compound?
A: active; positive

Q: What about the mutagenic call (Test System: AMES SALMONELLA TYPHIMURIUM, Strain/Indicator: TA98, Metabolic Activation: RAT, LIVER, S-9, 3-METHYLCHOLANTHRENE, Method: STANDARD PLATE) of the same compound?
A: active; positive

Q: What about the mutagenic call (Test System: AMES SALMONELLA TYPHIMURIUM, Strain/Indicator: TA100(1,8-DNP6), Metabolic Activation: NONE, Method: PREINCUBATION) of the same compound?
A: active; positive

Q: And the mutagenic call (Test System: AMES SALMONELLA TYPHIMURIUM, Strain/Indicator: TA100(1,8-DNP6), Metabolic Activation: RAT, LIVER, S-9, AROCLOR 1254, Method: PREINCUBATION)?
A: active; positive

Q: And the mutagenic call (Test System: AMES SALMONELLA TYPHIMURIUM, Strain/Indicator: TA100(NR), Metabolic Activation: NONE, Method: PREINCUBATION)?
A: active; positive

Q: And the mutagenic call (Test System: AMES SALMONELLA TYPHIMURIUM, Strain/Indicator: TA100(NR), Metabolic Activation: RAT, LIVER, S-9, AROCLOR 1254, Method: PREINCUBATION)?
A: active; positive

Q: What about the mutagenic call [1] of the same compound?
A: active; positive

Q: And the mutagenic call (Test System: AMES SALMONELLA TYPHIMURIUM, Strain/Indicator: TA100, Metabolic Activation: RAT, LIVER, S-9, AROCLOR 1254, Method: PREINCUBATION)?
A: active; positive

Q: How did the mutagenic call (End Point: IN VITRO MICRONUCLEUS, Test System: HUMAN B-LYMPHOBLASTOID CELLS (MCL-5), Metabolic Activation: NONE) turn out when `O=C1c2ccccc2-c2ccc([N+](=O)[O-])c3cccc1c23` was run?
A: active; positive

Q: And the mutagenic call (End Point: In vivo micronucleus, Test System: lacZ mutant frequency in liver, lung, and bone marrow cells, Species: Mouse, Strain/Sex: Big Blue (BALB/c x DBA2)/Male, Route: Oral)?
A: active; positive in liver and bone marrow

Q: And the mutagenic call (Test System: Human lymphoblastoid cells, Strain/Indicator: MCL-5 (HPRT)/6-Thioguanine, Metabolic Activation: None, Method: Well plates)?
A: active; positive

Q: What about the mutagenic call (Test System: Human lymphoblastoid cells, Strain/Indicator: MCL-5 (tk+/tk-)/Trifluorothymidine, Metabolic Activation: None, Method: Well plates) of the same compound?
A: active; positive

Q: And the mutagenic call (Test System: Human lymphoblastoid cells, Strain/Indicator: h1A1v2 (HPRT)/6-Thioguanine, Metabolic Activation: None, Method: Well plates)?
A: active; positive

Q: And the mutagenic call (Test System: Human lymphoblastoid cells, Strain/Indicator: h1A1v2 (tk+/tk-)/Trifluorothymidine, Metabolic Activation: None, Method: Well plates)?
A: active; positive

Q: `Nc1ncnc2c1ncn2[C@@H]1O[C@H](CO)[C@@H](O)[C@@H]1O` was tested. Which mutagenic call (Test System: CHINESE HAMSTER OVARY, Strain/Indicator: CHO/6-THIOGUANINE, Metabolic Activation: NONE) did it give?
A: active; positive
